According to US20080311126A1, “Antisense Oligonucleotides Directed to Ribonucleotide Reducatase R2 and Uses Thereof in Combination Therapies for the Treatment of Cancer” (Genesense Technologies, Inc, priority 2004, published 2008):
Entries after “also recorded” stand apart in the source; their conditions may differ.

What was measured:
Type in all cases: in vivo
[1] = tested on: Caki-1 human renal cancer cells; assay: Caki-1 renal tumour xenograft in SCID mice, SEQ ID NO:1 and chemotherapeutics; conditions: Caki (renal); Mouse CD-1
Protocol: Caki-1 human renal cancer cells (1×10^7 cells in […] of PBS) were subcutanteously injected into the right flank of 6-7 weeks old female SCID mice. After the size of tumour reached an approximate volume of 200 mm^3, 7 days post tumour cell injection, SEQ ID NO:1 was administered by bolus infusion into the tail vein every other day at 10 mg/kg. Control animals received saline alone for the same period. The antitumour effect of SEQ ID NO:1 was further compared to that of two chemotherapeutic agents: 5-FU and vinblastine. 5-FU was administered intraperitoneally at days 7-13, 21-27 and 35-36 with a dose of 13 mg/kg/day, while vinblastin was administered intraperitoneally at days 7, 14, 21, 28 and 35 at a dose of 0.6 mg/kg/week. Antitumour effects of each of these compounds were further compared to those of SEQ ID NO:1 in combination with 5-FU or with vinblastin. The two chemotherapeutic agents were applied as described above, one hour after the treatments with SEQ ID NO:1 when combination treatments occurred on the same day. All treatments were stopped at day 36. A day after the last treatment, tumours were excised from the animals and their weights were measured.

[2] = tested on: MDA-MB-231 human breast cancer cells; assay: MDA-MB-231 breast tumour xenograft in CD-1 nude mice
Protocol: MDA-MB-231 human breast cancer cells (1×10^7 cells in 100 μl of PBS) were subcutaneously injected into the right flank of 6-7 weeks old female CD-1 nude mice. After the size of tumour reached an approximate volume of 100 mm^3, 5 days post tumour cell injection, SEQ ID NO:1, or the scrambled control oligonucleotide (SEQ ID NO:3) were administered by bolus infusion into the tail vein every other day at 10 mg/kg. Control animals received saline alone for the same period. Antitumour effect of SEQ ID NO:1 was further compared to that of taxol or doxorubicin alone or in combination. Taxol was administered intravenously once a week at a dose of 10 mg/kg for three (FIG. 17A) or four weeks (FIG. 17C). Doxorubicin was administered intravenously once a week at a dose of 5 mg/kg for first three weeks (FIG. 17A) or for two weeks (FIG. 17C). All treatments were stopped at day 33 (FIG. 17A) or at day 26 (FIG. 17C), respectively. A day after the last treatment, tumours were excised from the animals and their weights were measured. […] In FIG. 17C, antitumour activities were estimated by the inhibition of tumour volume, which was measured with calipers. Each point represents mean tumour volume calculated from 10 animals per experimental group.

[3] = tested on: Hela S3 human cervix epitheloid carcinoma cells; assay: Hela S3 hydroxyurea resistant cervix carcinoma xenograft in SCID mice
Protocol: Hela S3 human cervix epitheloid carcinoma cells (5×10^5 cells in 100 μl of PBS) were subcutaneously injected into the right flank of 6-7 weeks old female SCID mice. Hela S3 is a hydroxyurea resistant cell line. After the size of tumour reached an approximate volume of 100 mm^3, 3 days post tumour cell injection, SEQ ID NO:1 was administered by bolus infusion into the tail vein every other day at 10 mg/kg 6 times. Control animals received saline alone for the same period. Antitumour effect of SEQ ID NO:1 was further compared to that of Hydroxyurea or Cisplatin alone or in combination. Hydroxyurea was administered intraperitoneally every day at a dose of 250 mg/kg for 10 days. Cisplatin was administered intravenously once a week for three weeks at a dose of 4 mg/kg. Antitumour activities were estimated by the inhibition of tumour volume, which was measured with caliper. Each point represents mean tumour volume calculated from 10 animals per experimental group. […] As expected, treatment with Hydroxyurea during the same period was ineffective against Hydroxyurea-resistant tumour.

[4] = tested on: Caki-1 human renal carcinoma; assay: Caki-1 renal tumour xenograft in SCID mice, SEQ ID NO:1 and interferon alpha
Protocol: (§1) Cell Line: Human renal carcinoma cell line (Caki-1) was grown as monolayer culture in Minimum essential medium (α-MEM) supplemented with 10% fetal bovine serum (FEBS), 0.1 mM non-essential amino acid, 1.0 mM sodium pyruvate, 100 U/ml penicillin, 100 μg/ml streptomycin and 0.25 μg/ml amphotericin B and 2 mM L-alanyl-L-glutamine at 37° C. in an atmosphere of 5% CO2 in air. The tumour cells were routinely subcultured twice weekly by trypsin-EDTA treatment. The cells were harvested from subconfluent logarithmically growing culture by treatment with trypsin-EDTA and counted for tumour inoculation.
(§2) Tumour Inoculation: An acclimation period of at least 7 days was allowed between animal receipt and commencement of tumour inoculation. When the female SCID mice were 6-7 weeks of age (20-25 g), each mouse was subcutaneously (s.c.) injected with 5×10^6 Caki-1 human renal carcinoma cells in 0.1 ml of PBS at the right flank of the mice to induce tumour growth.
Dose-Preparation and Treatment: The dose for SEQ ID NO:1 was formulated using the following procedure. From a concentrated stock solution (usually prepared in ddH2O at a concentration of 50 mg/ml and kept at −80° C.), SEQ ID NO:1 was diluted with saline to achieve a final target concentration of 1 or 2.5 mg/ml on the first day of dosing. Enough SEQ ID NO:1 was diluted so that the compound could be administered by bolus infusion into the tail vein every other day for the duration of the experiment. Recombinant interferon alfa-2b (Intron A™) was utilized according to the dose and treatment schedules below. The treatments were started 7 days after the tumour cell inoculation when the tumour size reached an approximate volume of 125 mm^3. Each treatment group contained 10 tumour-bearing mice. Routes of administration are indicated as follows: intravenous (i.v.) and intratumoural (i:t.).
Groups and Treatments: The following treatment groups were evaluated: • 1. Saline treated group-1: saline 0.1 ml/mouse/48 hours, i.v., n=10 • 2. Saline treated group-2: saline 0.05 ml/mouse/5 days/week, i.t., n=10 • 3. […] Intron A 10^3 unit/5 days/week treated group: 10^3 unit Intron A in 0.05 ml saline, i.t., n=10 • 6. Intron A 10^5 unit/5 days/week treated group: 10^5 unit Intron A in 0.05 ml saline, i.t., n=10 • 7. SEQ ID NO:1 1 mg/kg Plus Intron A 10^3 treated group: “3+5”, n=10 • 8. SEQ ID NO:1 1 mg kg Plus Intron A 10^5 treated group: “3+6”, n=10 • 9. SEQ ID NO:1 2.5 mg/kg Plus Intron A […], n=10 • 10. SEQ ID NO:1 2.5 mg/kg Plus Intron A 10^5 treated group: “4+6”, n=10
Mice received 25 treatments with SEQ ID NO:1 and 30 treatments with Intron A. The dosing schedule for Intron A was: treatment with Intron A for 3 consecutive weeks, 1 week off, and treatment with Intron A again for another 3 consecutive weeks. The dosing schedule for SEQ ID NO:1 was treatment with SEQ ID NO:1 every other day for the duration of the experiment.
(§3) Endpoints: The effects of SEQ ID NO:1 and Intron A on tumour growth were determined. Tumour sizes were measured every week from day 7 after the tumour cell inoculation in two dimensions using a caliper, and the volume was expressed in mm^3 using the formula: V=0.5 a×b^2, where a and b are the long and short diameters of the tumour, respectively. Mean tumour volumes calculated from each measurement were then plotted in a standard graph to compare the anti-tumour efficacy to that of controls. A day after the last treatment, tumours were excised from the animals and their weights were measured.
A second independent in vivo study was conducted as described in Example 1 utilizing SCID mice (female, 6 weeks old) and Caki-1 (human renal carcinoma cell line) to test the efficacy of SEQ ID NO:1 in combination with IFN alpha Briefly, 5×10^6 Caki-1 human renal carcinoma cells in 0.1 ml of PBS were injected subcutaneously at the right flank of the mice to induce tumour growth. Treatments started on the seventh day after tumour cell injection. […]

[5] = tested on: A498 human renal carcinoma; assay: A498 renal tumour xenograft in SCID mice, SEQ ID NO:1 and interferon alpha
Protocol: as §1, with “line:” for “Line:”, “(A498)” for “(Caki-1)”, “(FBS),” for “(FEBS),”, “L-alanyl-1-glutamine” for “L-alanyl-L-glutamine”
as §2, with “subcutaneously” for “subcutaneously (s.c.)”, “9×10^6 A498” for “5×10^6 Caki-1”
Dose Preparation and Treatment: The dose for SEQ ID NO:1 was formulated using the following procedure. From a concentrated stock solution (usually prepared in ddH2O at a concentration of 50 mg/ml and kept at −80° C.), SEQ ID NO:1 was diluted with saline to achieve a final target concentration of 1 or 2.5 mg/ml on the first day of dosing. Enough SEQ ID NO:1 was diluted so that the compound could be administered by bolus infusion into the tail vein every other day for the duration of the experiment. Recombinant interferon alfa-2b (ntron A™) was employed according to the dose and treatment schedules below. The treatments were started 20 days after the tumour cell inoculation when the tumour size reached an approximate volume of 200 mm^3. Each treatment group contained 10 tumour-bearing mice. Routes of administration are as follows: intravenous (i.v.) and intratumoural (i.t.).
• 1. Saline treated group-1: saline 0.1 ml/mouse/48 hours, i.v., n=10 • 2. Saline treated group-2: saline 0.05 ml/mouse/5 days/week, i.t., n=10 • 3. SEQ ID NO:1 treated group: 1 mg/kg/48 hours in 0.1 ml saline, i.v. n=10 • 4. SEQ ID NO:1 treated group: 2.5 mg/kg/48 hours in 0.1 ml saline, i.v., n=10 • 5. […]
Treatment started from day 20 after inoculation of human renal tumour cells. […]
as §3, with “growth was” for “growth were”, “day 20” for “day 7”, “measured. […]” for “measured.”

[6] = Example 4, oligonucleotide 2.5 mg/kg every 2 days i.v., Intron A 10^5 unit 5 days/week i.t.

O=c1[nH]cc(F)c(=O)[nH]1 [5-FU, 5-fluorouracil, reference compound]
Tumour weight as % of saline control [1]: 52%

COc1cccc2c1C(=O)c1c(O)c3c(c(O)c1C2=O)C[C@@](O)(C(=O)CO)C[C@@H]3O[C@H]1C[C@H](N)[C@H](O)[C@H](C)O1 [Doxorubicin]
Tumour weight as % of saline control ([2]; MDA-MB-231 (breast), Mouse CD-1): 41%

NC(=O)NO [Hydroxyurea (HU), Hydroxyurea, reference compound]
Tumour weight as % of saline control ([3]; Hela S3 (cervix), hydroxyurea resistance, SCID): 92%
antitumour effect (tumour volume) ([3]; SEQ ID NO:1 10 mg/kg 6 times, Hydroxyurea 250 mg/kg i.p. 10 days, Cisplatin 4 mg/kg i.v. weekly): ineffective

ACGCACTCAGCTAGTGACAC (listed as DNA, chemistry not given here) [SEQ ID NO:3, reference compound]
antitumour effect (tumour weight, tumour volume) ([2]; oligonucleotide 10 mg/kg every other day i.v., taxol 10 mg/kg, doxorubicin 5 mg/kg i.v. once a week): no significant anti-tumour activity as a monotherapy; also recorded: does not cooperate with doxorubicin
effect on the efficacy of Intron A ([4]; Example 4, SEQ ID NO:3 2.5 mg/kg plus Intron A 10^5): did not improve the efficacy of Intron A
anti-tumour efficacy (tumour volume, tumour weight) [4, 6]: no efficacy as a monotherapy

Recombinant interferon alfa-2b [Intron A]
anti-tumour efficacy (tumour volume, tumour weight) ([4]; Example 2, SEQ ID NO:1 1 or 2.5 mg/kg/48 hours i.v., Intron A 10^3 or 10^5 unit 5 days/week i.t.): significant anti-tumour efficacy
anti-tumour efficacy (tumour volume, tumour weight) ([4]; Example 3, SEQ ID NO:1 2.5 or 5 mg/kg every 2 days i.v., Intron 10^5 unit 5 days/week i.t.): significant anti-tumour efficacy
anti-tumour efficacy (tumour volume, tumour weight) [4, 6]: significant anti-tumour efficacy
efficacy in combination with SEQ ID NO:1, subcutaneous versus intratumoural ([4]; Example 5, SEQ ID NO:1 2.5 mg/kg/2 days i.v. plus 100000 units Intron A x3/week s.c. or i.t.): equally effective
anti-tumour efficacy (tumour volume, tumour weight) ([5]; Example 6, SEQ ID NO:1 1 or 2.5 mg/kg/48 hours i.v., Intron A 10^3 or 10^5 unit 5 days/week i.t.): significant anti-tumour efficacy
anti-tumour efficacy (tumour volume, tumour weight) ([5]; Example 7, SEQ ID NO:1 2.5 mg/kg/2ds i.v., 10000 units Intron A x5/week for 2 weeks i.t.): significant anti-tumour efficacy
